Patent US11111251B2, “Positive allosteric modulators of the muscarinic acetylcholine receptor M1” (Vanderbilt University, priority 2016, dated 2021)
Where two headings read alike, the source gives them in different places.

Biological target: T1, human mAChR M1 (Homo sapiens, UniProt P11229)
T1 sequence (P11229 1-460): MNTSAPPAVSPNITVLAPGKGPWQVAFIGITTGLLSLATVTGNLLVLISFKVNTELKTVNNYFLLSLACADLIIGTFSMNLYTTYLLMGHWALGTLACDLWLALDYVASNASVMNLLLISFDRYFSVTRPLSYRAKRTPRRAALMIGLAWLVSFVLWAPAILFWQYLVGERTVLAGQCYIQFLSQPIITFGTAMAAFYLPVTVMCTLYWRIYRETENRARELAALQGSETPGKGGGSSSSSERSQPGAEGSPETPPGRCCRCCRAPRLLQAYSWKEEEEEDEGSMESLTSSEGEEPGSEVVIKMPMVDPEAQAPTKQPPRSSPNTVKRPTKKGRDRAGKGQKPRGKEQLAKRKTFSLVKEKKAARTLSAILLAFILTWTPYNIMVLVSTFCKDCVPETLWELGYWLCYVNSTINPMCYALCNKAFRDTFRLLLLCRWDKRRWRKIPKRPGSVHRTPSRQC
Experiment: mAChR M1 cell-based functional assay: calcium mobilization, positive allosteric modulator mode (increase in EC20 acetylcholine response)
Settings: for Emax: read-out: Human M1 Emax (%)
Source text: a. Cell Lines Expressing Muscarinic Acetylcholine Receptors
Chinese hamster ovary (CHO-K1) cells stably expressing rat (r)M1 were purchased from the American Type Culture Collection and cultured according to their indicated protocol. CHO cells stably expressing human (h)M2, hM3, and hM5 were described previously (Levey, et al., 1991); hMi and hM4 cDNAs were purchased from Missouri S&T cDNA Resource; rM4 cDNA was provided by T. I. Bonner (National Institutes of Health, Bethesda, Md.). rM2 and rM3 were cloned from a rat brain cDNA library and sequence verified. hMi, rM2, rM3, hM4, and rM4 cDNAs were used to stably transfect CHO-K1 cells purchased from the American Type Culture Collection using Lipofectamine2000. To make stable rM2, hM2, rM3, hM4, and rM4 cell lines for use in calcium mobilization assays, these cells also were stably transfected with a chimeric G-protein (Gqi5) (provided by B. R. Conklin, University of California, San Francisco) using Lipofectamine 2000. rMi, hMi, rM3, hM3, rM5, and hM5 cells were grown in Ham's F-12 medium containing 10% heat-inactivated fetal bovine serum (FBS), 20 mM HEPES, and 50 μg/mL G418 sulfate. rM2-Gqi5, hM2-Gqi5, and hM4-Gqi5 cells were grown in the same medium also containing 500 μg/mL Hygromycin B. Stable rM4-Gqi5 cells were grown in DMEM containing 10% heat-inactivated FBS, 20 mM HEPES, 400 μg/mL G418 sulfate, and 500 μg/mL Hygromycin B.
b. Cell-Based Functional Assay of Muscarinic Acetylcholine Receptor Activity
For high throughput measurement of agonist-evoked increases in intracellular calcium, CHO-K1 cells stably expressing muscarinic receptors were plated in growth medium lacking G418 and hygromycin at 15,000 cells/20 μL/well in Greiner 384-well black-walled, tissue culture (TC)-treated, clear-bottom plates (VWR). Cells were incubated overnight at 37° C. and 5% CO2. The next day, cells were washed using an ELX 405 (BioTek) with four washes (80 μL) of assay buffer then aspirated to 20 μL. Next, 20 μL of 16 μM Fluo-4/acetoxymethyl ester (Invitrogen, Carlsbad, Calif.) prepared as a 2.3 mM stock in DMSO and mixed in a 1:1 ratio with 10% (w/v) Pluronic F-127 and diluted in assay buffer was added to the wells and the cell plates were incubated for 50 min at 37° C. and 5% CO2. Dye was removed by washing with the ELX 405 (four […], washes of assay buffer) then aspirated to 20 μL. Compound master plates were formatted in an 11 point CRC format (1:3 dilutions) in 100% DMSO with a starting concentration of 10 mM using the BRAVO liquid handler (Agilent). Test compound CRCs were then transferred to daughter plates (240 nL) using the Echo acoustic plate reformatter (Labcyte, Sunnyvale, Calif.) and then diluted into assay buffer (40 μL) to a 2× stock using a Thermo Fisher Combi (Thermo Fisher Scientific, Waltham, Mass.).
Calcium flux was measured using the Functional Drug Screening System (FDSS) 6000 (Hamamatsu Corporation, Tokyo, Japan) as an increase in the fluorescent static ratio. Compounds were applied to cells (20 μL, 2×) using the automated system of the FDSS 6000 at 4 s into the 300 s protocol and the data were collected at 1 Hz. At 144 s into the 300s protocol, 10 μL of an EC20 concentration of the muscarinic receptor agonist acetylcholine was added (5×), followed by the addition of 12 μL an EC80 concentration of acetylcholine at the 230 s time point (5×). Agonist activity was analyzed as a concentration-dependent increase in calcium mobilization upon compound addition. Positive allosteric modulator activity was analyzed as a concentration-dependent increase in the EC20 acetylcholine response. Antagonist activity was analyzed as a concentration-dependent decrease in the EC80 acetylcholine response. Concentration-response curves were generated using a four-parameter logistical equation in XLfit curve fitting software (IDBS, Bridgewater, N.J.) for Excel (Microsoft, Redmond, Wash.) or Prism (GraphPad Software, Inc., San Diego, Calif.).

[1] = Table 2, human M1, read-out: Human M1 EC50
[2] = Table 1, mAChR M1 cell-based functional assay, PAM mode, species not given, read-out: EC50

Compound | EC50 [1] | Emax (Table 2, human M1) | EC50 [2]
COCC(C)NC(=O)c1cc(Cc2ccc(-c3ccn(C)n3)nc2)c2sccc2n1 (stereo not shown) [Compound 424, N-(2-methoxy-1-methyl-ethyl)-7-[[6-(1-methylpyrazol-3-yl)-3-pyridyl]methyl]thieno[3,2-b]pyridine-5-carboxamide] | 8470 nM | 68.6% | 
Cn1ccc(-c2ccc(Cc3cc(C(=O)N[C@H]4CCC[C@@H]4O)nc4ccsc34)cn2)n1 [Compound 352, N-[(1S,2S)-2-hydroxycyclopentyl]-7-[[6-(1-methylpyrazol-3-yl)-3-pyridyl]methyl]thieno[3,2-b]pyridine-5-carboxamide] | 32.7 nM | 90.7% | 
Cc1csc2c(Cc3ccc(-c4ccn(C)n4)cc3)cc(C(=O)NCC3CCOC3)nc12 (stereo not shown) [Compound 311, 3-methyl-7-[[4-(1-methylpyrazol-3-yl)phenyl]methyl]-N-(tetrahydrofuran-3-ylmethyl)thieno[3,2-b]pyridine-5-carboxamide] | 714 nM | 77.1% | 
Cc1ncc(Cc2cc(C(=O)NC3CCOCC3)nc3ccsc23)cn1 [Compound 126, 7-[(2-methylpyrimidin-5-yl)methyl]-N-tetrahydropyran-4-yl-thieno[3,2-b]pyridine-5-carboxamide] | > 10000 nM | 27.4% | 
CO[C@@H]1CCCC[C@H]1NC(=O)c1cc(Cc2ccc(-c3coc(C)n3)cc2)c2sccc2n1 [Compound 169, N-[(1R,2R)-2-methoxycyclohexyl]-7-[[4-(2-methyloxazol-4-yl)phenyl]methyl]thieno[3,2-b]pyridine-5-carboxamide] | 1360 nM | 84.1% | 
Cc1ccc(Oc2cc(C(=O)NC(CO)C3CC3)nc3ccsc23)cn1 (stereo not shown) [Compound 30, N-(1-cyclopropyl-2-hydroxy-ethyl)-7-[(6-methyl-3-pyridyl)oxy]thieno[3,2-b]pyridine-5-carboxamide] |  |  | > 10000 nM
Cn1cc(-c2ccc(Cc3cc(C(=O)NC4CC5(COC5)C4)nc4ccsc34)cn2)cn1 [Compound 327, 7-[[6-(1-methylpyrazol-4-yl)-3-pyridyl]methyl]-N-(2-oxaspiro[3.3]heptan-6-yl)thieno[3,2-b]pyridine-5-carboxamide] | 166 nM | 79.2% | 
Cc1nn(C)c(C)c1-c1ccc(Cc2cc(C(=O)N[C@@H]3CC[C@H]3O)nc3ccsc23)cc1 [Compound 240, N-[(1R,2R)-2-hydroxycyclobutyl]-7-[[4-(1,3,5-trimethylpyrazol-4-yl)phenyl]methyl]thieno[3,2-b]pyridine-5-carboxamide] | > 10000 nM | 19.9% | 
O=C(NC1CCCNC1=O)c1cc(Cc2ccc(-c3cscn3)cc2)c2sccc2n1 (stereo not shown) [Compound 221, N-(2-oxo-3-piperidyl)-7-[(4-thiazol-4-ylphenyl)methyl]thieno[3,2-b]pyridine-5-carboxamide] | 595 nM | 86.9% | 

Other lines, results leading:

EC50 [1] | Emax (Table 2, human M1) | EC50 [2] | Compound
4140 nM | 67.2% |  | Cn1ncc2nc(C(=O)NC[C@H]3CCCO3)cc(Cc3ccc(-n4cccn4)cc3)c21 [Compound 502, 1-methyl-7-[(4-pyrazol-1-ylphenyl)methyl]-N-[[(2R)-tetrahydrofuran-2-yl]methyl]-pyrazolo[4,3-b]pyridine-5-carboxamide]
 |  | 360 nM | Cc1ccc(Cc2cc(C(=O)N[C@H]3CCC[C@@H]3O)nc3ccsc23)cn1 [Compound 42, N-[(1S,2S)-2-hydroxycyclopentyl]-7-[(6-methyl-3-pyridyl)methyl]thieno[3,2-b]pyridine-5-carboxamide]
31.1 nM | 85.7% |  | Cc1nc(-c2ccc(Cc3cc(C(=O)N[C@H]4COCC[C@@H]4O)nc4ccsc34)cc2)cs1 [Compound 193, N-[(3S,4S)-4-hydroxytetrahydropyran-3-yl]-7-[[4-(2-methylthiazol-4-yl)phenyl]methyl]thieno[3,2-b]pyridine-5-carboxamide]
 |  | > 10000 nM | Cc1ccc(Oc2cc(C(=O)NC3CCCCC3)nc3ccsc23)cn1 [Compound 19, N-cyclohexyl-7-[(6-methyl-3-pyridyl)oxy]thieno[3,2-b]pyridine-5-carboxamide]
38.5 nM | 88.1% |  | Cn1cc(-c2ccc(Cc3cc(C(=O)NCC4CCN4)nc4ccsc34)cn2)cn1 (stereo not shown) [Compound 360, N-(azetidin-2-ylmethyl)-7-[[6-(1-methylpyrazol-4-yl)-3-pyridyl]methyl]thieno[3,2-b]pyridine-5-carboxamide]
597 nM | 72.7% |  | COCCNC(=O)c1cc(Cc2ccc(-n3cccn3)cc2)c2sccc2n1 [Compound 429, N-(2-methoxyethyl)-7-[(4-pyrazol-1-ylphenyl)methyl]thieno[3,2-b]pyridine-5-carboxamide]
359 nM | 81% |  | Cc1ncc(Cc2cc(C(=O)N[C@@H]3CCCC[C@H]3O)nc3ccsc23)s1 [Compound 136, N-[(1R,2R)-2-hydroxycyclohexyl]-7-[(2-methylthiazol-5-yl)methyl]thieno[3,2-b]pyridine-5-carboxamide]
67.7 nM | 66.9% |  | O=C(NCC1CCO1)c1cc(Cc2ccc(-n3cccn3)cc2)c2sccc2n1 (stereo not shown) [Compound 284, N-(oxetan-2-ylmethyl)-7-[(4-pyrazol-1-ylphenyl)methyl]thieno[3,2-b]pyridine-5-carboxamide]
97.4 nM | 74.4% |  | O=C(NCC1CCOCC1)c1cc(Cc2ccc(-n3cccn3)cc2)c2sccc2n1 [Compound 288, 7-[(4-pyrazol-1-ylphenyl)methyl]-N-(tetrahydropyran-4-ylmethyl)thieno[3,2-b]pyridine-5-carboxamide]
428 nM | 73.5% |  | O=C(N[C@H]1CC[C@@H]1O)c1cc(Cc2ccc(-c3cncs3)cc2)c2sccc2n1 [Compound 405]
> 10000 nM | 16.2% |  | Cc1nn(C)cc1-c1ccc(Cc2cc(C(=O)NC3CN(C(C)(C)C)C3)nc3ccsc23)cc1 [Compound 245, N-(1-tert-butylazetidin-3-yl)-7-[[4-(1,3-dimethylpyrazol-4-yl)phenyl]methyl]thieno[3,2-b]pyridine-5-carboxamide]
 |  | > 10000 nM | Cc1ccc(Oc2cc(C(=O)NC3CCCCNC3=O)nc3ccsc23)cn1 (stereo not shown) [Compound 36, 7-[(6-methyl-3-pyridyl)oxy]-N-(2-oxoazepan-3-yl)thieno[3,2-b]pyridine-5-carboxamide]
652 nM | 86% |  | Cc1nc(-c2ccc(Cc3cc(C(=O)NC4CC5(COC5)C4)nc4ccsc34)cc2)cs1 [Compound 178, 7-[[4-(2-methylthiazol-4-yl)phenyl]methyl]-N-(2-oxaspiro[3.3]heptan-6-yl)thieno[3,2-b]pyridine-5-carboxamide]
